According to patent US6586402B1, “LH-RH peptide analogues, their uses and pharmaceutical compositions containing them” (Laboratoire Theramex, priority 1997, dated 2003):
Like-named read-outs stand apart in the source and are kept apart here. Square brackets hold non-standard residues; d marks the D form. Peptide text beside a SMILES is read from it. * marks the point of attachment. dPhe(4-Cl) = N[C@H](Cc1ccc(Cl)cc1)C(=O)O; d2Nal = N[C@H](Cc1ccc2ccccc2c1)C(=O)O; d(hCit) = NC(=O)NCCCC[C@@H](N)C(=O)O; Lys(iPr) = CC(C)NCCCC[C@H](N)C(=O)O; dCit = NC(=O)NCCC[C@@H](N)C(=O)O; tBuAla = CC(C)(C)C[C@H](N)C(=O)O; d3Pal = N[C@H](Cc1cccnc1)C(=O)O; Nicotinoyl = O=C(c1cccnc1)*

Key:
[1] = target: LH-RH receptors (membrane fractions of pituitaries from female Sprague Dawley rats) (rat (female Sprague Dawley)) (UniProt P30969); assay: competition with [125I]-buserelin, rat pituitary membranes
[2] = target: LH-RH receptors (membrane fractions of pituitaries from female Sprague Dawley rats) (rat (female Sprague Dawley)) (UniProt P30969); assay: competition with [125I]-buserelin, rat pituitary membranes; Ki by Cheng-Prusoff
LH-RH receptors [3] = target: T1, LH-RH receptors (Rattus norvegicus, UniProt P30969)
T1 sequence (P30969 1-327): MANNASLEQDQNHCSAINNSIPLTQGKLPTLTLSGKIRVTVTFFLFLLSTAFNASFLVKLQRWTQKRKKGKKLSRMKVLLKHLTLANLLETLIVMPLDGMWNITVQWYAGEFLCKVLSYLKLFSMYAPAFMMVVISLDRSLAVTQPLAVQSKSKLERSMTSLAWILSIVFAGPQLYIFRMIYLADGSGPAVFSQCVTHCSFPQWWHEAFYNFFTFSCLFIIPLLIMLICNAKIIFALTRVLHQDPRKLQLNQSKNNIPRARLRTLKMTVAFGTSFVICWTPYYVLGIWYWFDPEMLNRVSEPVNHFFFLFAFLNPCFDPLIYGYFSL

LH-RH receptors [4] = target: T1, LH-RH receptors; assay: biochemical

Molecule: Histrelin (peptide)
- pKi [1]: > 9 -log Ki
- pKi [2]: 9.98 -log Ki

Molecule: Deslorelin (peptide)
- pKi [1]: > 9 -log Ki
- pKi [2]: 9.9 -log Ki

Molecule: CC(=O)N[C@H](Cc1ccc2ccccc2c1)C(=O)N[C@H](Cc1ccc(Cl)cc1)C(=O)N[C@H](Cc1cccnc1)C(=O)N[C@@H](CO)C(=O)N[C@@H](Cc1ccc(O)cc1)C(=O)N[C@H](CCCNC(N)=O)C(=O)N[C@@H](CC(C)(C)C)C(=O)N[C@@H](CCCCNC(C)C)C(=O)N1CCC[C@H]1C(=O)N[C@H](C)C(N)=O [Example 17, AcD-Nal-D-pClPhe-D-Pal-Ser-Tyr-D-Cit-Npg-IprLys-Pro-D-Ala-NH2] (Ac-[d2Nal][dPhe(4-Cl)][d3Pal]SY[dCit][tBuAla][Lys(iPr)]P[dA]-NH2)
- % of inhibition of ovulation (LH-RH receptors [3]; 0.25 μg/rat s.c.): 80%
- Number of ovulating females/total number of treated females (LH-RH receptors [3]; 0.25 μg/rat s.c.): 1/5
- % of inhibition of ovulation (LH-RH receptors [3]; 0.5 μg/rat s.c.): 43%
- Number of ovulating females/total number of treated females (LH-RH receptors [3]; 0.5 μg/rat s.c.): 4/7
- % of inhibition of ovulation (LH-RH receptors [3]; 0.75 μg/rat s.c.): 100%
- Number of ovulating females/total number of treated females (LH-RH receptors [3]; 0.75 μg/rat s.c.): 0/7
- % of inhibition of ovulation (LH-RH receptors [3]; 1 μg/rat s.c.): 100%
- Number of ovulating females/total number of treated females (LH-RH receptors [3]; 1 μg/rat s.c.): 0/12
- antiovulatory activity in words (LH-RH receptors [3]; 1 μg/rat s.c.): maximal or sub-maximal activity
- dose relation of the inhibition of ovulation, in words (LH-RH receptors [3]; dose range studied, s.c.): especially active, but its effects were not related to the dose
- Ki (LH-RH receptors [4]): 0.191 nM

Molecule: Buserelin (peptide)
- pKi [1]: > 9 -log Ki
- pKi [2]: 9.35 -log Ki

Molecule: Antide (peptide)
- pKi [1]: > 9 -log Ki
- pKi [2]: 9.16 -log Ki

Molecule: CC(=O)N[C@H](Cc1ccc2ccccc2c1)C(=O)N[C@H](Cc1ccc(Cl)cc1)C(=O)N[C@H](Cc1cccnc1)C(=O)N[C@@H](CO)C(=O)N[C@@H](Cc1ccc(O)cc1)C(=O)N[C@H](CCCNC(N)=O)C(=O)N[C@@H](CC(C)(C)C)C(=O)N[C@@H](CCCNC(=N)N)C(=O)N1CCC[C@H]1C(=O)N[C@H](C)C(N)=O [Example 16, AcD-Nal-D-pClPhe-D-Pal-Ser-Tyr-D-Cit-Npg-Arg-Pro-D-Ala-NH2] (Ac-[d2Nal][dPhe(4-Cl)][d3Pal]SY[dCit][tBuAla]RP[dA]-NH2)
- % of inhibition of ovulation (LH-RH receptors [3]; 0.25 μg/rat s.c.): 20%
- Number of ovulating females/total number of treated females (LH-RH receptors [3]; 0.25 μg/rat s.c.): 4/5
- % of inhibition of ovulation (LH-RH receptors [3]; 1 μg/rat s.c.): 100%
- Number of ovulating females/total number of treated females (LH-RH receptors [3]; 1 μg/rat s.c.): 0/5
- antiovulatory activity in words (LH-RH receptors [3]; 1 μg/rat s.c.): maximal or sub-maximal activity
- Ki (LH-RH receptors [4]): 0.0676 nM

Molecule: CC(=O)N[C@H](Cc1ccc2ccccc2c1)C(=O)N[C@H](Cc1ccc(Cl)cc1)C(=O)N[C@H](Cc1cccnc1)C(=O)N[C@@H](CO)C(=O)N[C@@H](Cc1ccc(O)cc1)C(=O)N[C@H](CCCCNC(N)=O)C(=O)N[C@@H](CC(C)(C)C)C(=O)N[C@@H](CCCNC(=N)N)C(=O)N1CCC[C@H]1C(=O)N[C@H](C)C(N)=O [Example 19, AcD-Nal-D-pClPhe-D-Pal-Ser-Tyr-D-HCit-Npg-Arg-Pro-D-Ala-NH2] (Ac-[d2Nal][dPhe(4-Cl)][d3Pal]SY[d(hCit)][tBuAla]RP[dA]-NH2)
- % of inhibition of ovulation (LH-RH receptors [3]; 0.25 μg/rat s.c.): 40%
- % of inhibition of ovulation (LH-RH receptors [3]; 1 μg/rat s.c.): 100%
- Ki (LH-RH receptors [4]): 0.0776 nM

Molecule: CC(=O)N[C@H](Cc1ccc2ccccc2c1)C(=O)N[C@H](Cc1ccc(Cl)cc1)C(=O)N[C@H](Cc1cccnc1)C(=O)N[C@@H](CO)C(=O)N[C@@H](CCCCNC(=O)c1cccnc1)C(=O)N[C@H](CCCCNC(=O)c1cccnc1)C(=O)N[C@@H](CC(C)C)C(=O)N[C@@H](CCCCNC(C)C)C(=O)N1CCC[C@H]1C(=O)N[C@H](C)C(N)=O [Antide, reference compound] (Ac-[d2Nal][dPhe(4-Cl)][d3Pal]SK(Nicotinoyl)[dK](Nicotinoyl)L[Lys(iPr)]P[dA]-NH2)
- % of inhibition of ovulation (LH-RH receptors [3]; 0.5 μg/rat s.c.): 20%
- % of inhibition of ovulation (LH-RH receptors [3]; 1 μg/rat s.c.): 69%
- % of inhibition of ovulation (LH-RH receptors [3]; 2.5 μg/rat s.c.): 67%
- % of inhibition of ovulation (LH-RH receptors [3]; 5 μg/rat s.c.): 100%
- % of inhibition of ovulation (LH-RH receptors [3]; 10 μg/rat s.c.): 100%
- Ki (LH-RH receptors [4]): 0.692 nM
